This passage reports IC50 results from US9090593B2, “Bicyclic compounds as Pim inhibitors” (AMGEN INC., priority 2010, dated 2015).

Experiment [1] has as its target T1, full length recombinant Pim-1 protein (Homo sapiens, UniProt P11309).
T1 construct: by full length recombinant Pim-1, Pim-2, or Pim-3 protein; hexahistidine tag followed by a thrombin cleavage site (N); made in house; host or cells: Sf9 (baculovirus) or E. coli (pET28)
Nature of the experiment: Pim-1 enzyme assay (HTRF, phosphorylation of biotinylated-BAD (S112) peptide). In kind it is biochemical. As to conditions: enzyme assay, Pim-1; read-out: Pim_1_IC50. A digest of the protocol: (§1)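 HTRF readout (europium anti-pBAD S112 antibody, streptavidin-APC) of biotin-BAD peptide phosphorylation by recombinant full-length Pim-1 or Pim-2, buffer 60 mM Hepes pH 7.0, 2 mM DTT, 0.05% BSA. Enzymes were His6-tagged, from baculovirus/Sf9 or E. coli.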
(In general: In TR-FRET formats the signal depends on donor and acceptor labels being close together.)

Experiment [2] deals with T2, full length recombinant Pim-2 protein (Homo sapiens, UniProt Q9P1W9).
T2 construct: by full length recombinant Pim-1, Pim-2, or Pim-3 protein; hexahistidine tag followed by a thrombin cleavage site (N); made in house; host or cells: Sf9 (baculovirus) or E. coli (pET28)
T2 sequence (Q9P1W9 whole entry): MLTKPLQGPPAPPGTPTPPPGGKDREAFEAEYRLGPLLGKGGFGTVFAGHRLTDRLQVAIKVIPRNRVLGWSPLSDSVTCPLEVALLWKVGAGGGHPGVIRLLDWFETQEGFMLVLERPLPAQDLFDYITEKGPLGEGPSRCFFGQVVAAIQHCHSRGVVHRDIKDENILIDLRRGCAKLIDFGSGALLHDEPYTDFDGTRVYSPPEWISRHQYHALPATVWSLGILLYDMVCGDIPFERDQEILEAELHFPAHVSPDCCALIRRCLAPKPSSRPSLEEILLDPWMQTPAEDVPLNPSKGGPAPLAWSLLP
In words: Pim-2 enzyme assay (HTRF, phosphorylation of biotinylated-BAD (S112) peptide). Format: biochemical. The conditions noted are these: enzyme assay, Pim-2; read-out: Pim2_IC50. The method, boiled down:
as §1

In experiment [3] the target is T3, full length recombinant Pim-3 protein (Homo sapiens, UniProt Q86V86).
T3 construct: by full length recombinant Pim-1, Pim-2, or Pim-3 protein; purchased Millipore (UK)
Nature of the experiment: Pim-3 enzyme assay (HTRF, phosphorylation of biotinylated-BAD (S112) peptide). Format: biochemical. The conditions noted are these: read-out: Pim3 IC50. The method, boiled down: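 HTRF read-out, streptavidin-APC plus Eu-labelled anti-phospho-BAD (S112) antibody, measures BAD peptide phosphorylation by full-length recombinant Pim-3. Buffer: 60 mM Hepes pH 7.0, 2 mM DTT, 0.05% BSA; EDTA (3 mM) stop. Percent of control per well, IC50 by 4-parameter logistic fit.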

Experiment [4] has as its target T4, Pim-2 stably transfected into the U2OS human osteogenic sarcoma line (Homo sapiens, UniProt Q9P1W9).
T4 construct: expressed in transfected cells; host or cells: U2OS human osteogenic sarcoma line
In words: Pim cell assay, phospho-BAD normalized against total BAD, U2OS stably transfected with Pim-2. Note: high dose 31.6 µM. As to conditions: U2OS cells stably transfected with Pim-2, phospho-BAD; high dose […]; read-out: Pim2_Cell_IC50. Format: cell-based. The method, boiled down:
(§2)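 Read-out is phospho-BAD relative to total BAD, by MSD electrochemiluminescence on lysates, expressed as % phosphoprotein = (2×phospho)/(phospho+total)×100. Engineered U2OS lines carrying stably transfected Pim-1 or Pim-2 received 10-point compound dilutions at 0.3% final DMSO after overnight culture at 37 °C; DMSO-only wells served as high control.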

Experiment [5] addresses T5, Pim-1 stably transfected into the U2OS human osteogenic sarcoma line (Homo sapiens, UniProt P11309).
T5 construct: expressed in transfected cells; host or cells: U2OS human osteogenic sarcoma line
In words: Pim cell assay, phospho-BAD normalized against total BAD, U2OS stably transfected with Pim-1. In kind it is cell-based. The conditions noted are these: read-out: Pim1_Cell_IC50. The method, boiled down:
as §2

[6] abbreviates: U2OS cells stably transfected with Pim-1, phospho-BAD, high dose […].

pIC50: −log10 of the molar value. Read-outs that look alike come from different tables or passages of the source.

T5 sequence (P11309 whole entry): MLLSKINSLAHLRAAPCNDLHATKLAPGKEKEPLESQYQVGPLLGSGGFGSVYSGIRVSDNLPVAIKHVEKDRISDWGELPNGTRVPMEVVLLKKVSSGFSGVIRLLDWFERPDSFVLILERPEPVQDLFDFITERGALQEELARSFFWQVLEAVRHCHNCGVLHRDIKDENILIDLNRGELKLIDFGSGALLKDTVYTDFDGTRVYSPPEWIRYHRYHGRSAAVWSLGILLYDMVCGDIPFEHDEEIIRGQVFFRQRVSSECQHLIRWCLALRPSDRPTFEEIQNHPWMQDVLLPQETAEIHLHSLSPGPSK
T1 sequence (P11309 whole entry): as above
T4 sequence (Q9P1W9 whole entry): as the sequence (Q9P1W9 whole entry) above

With `NC1CCN(c2cncc(-c3n[nH]c4ccc(-c5ccnc(N6CCOCC6)n5)cc34)n2)CC1` [Example 98, 1-(6-(5-(2-(4-morpholinyl)-4-pyrimidinyl)-1H-indazol-3-yl)-2-pyrazinyl)-4-piperidinamine], the pIC50 in experiment [1] was 9.00; in experiment [2] it was 7.14; in experiment [3], 8.70; in experiment [4] it was below 4.50.
In the case of `C1=C(c2ccc3[nH]nc(-c4cncc(O[C@@H]5CCCNC5)n4)c3c2)COCC1` [Example 154, 5-(5,6-dihydro-2H-pyran-3-yl)-3-(6-((3R)-3-piperidinyloxy)-2-pyrazinyl)-1H-indazole], the pIC50 is 7.82 in experiment [1], 7.15 in experiment [2], 7.80 in experiment [3] and 6.11 in experiment [5] (setting [6]).
With `O=C(NC1CC1)c1ccnc(-c2ccc3[nH]nc(-c4cncc(O[C@@H]5CCCNC5)n4)c3c2)c1` [Example 157, N-cyclopropyl-2-(3-(6-((3R)-3-piperidinyloxy)-2-pyrazinyl)-1H-indazol-5-yl)-4-pyridinecarboxamide], the pIC50 is 7.92 in experiment [1], 7.49 in experiment [2], 7.92 in experiment [3] and 5.76 in experiment [5] (setting [6]).
On to `O=C(NC1CC1)c1cncc(-c2ccc3[nH]nc(-c4cncc(O[C@@H]5CCCNC5)n4)c3c2)c1` [Example 159, N-cyclopropyl-5-(3-(6-((3R)-3-piperidinyloxy)-2-pyrazinyl)-1H-indazol-5-yl)-3-pyridinecarboxamide], for which the pIC50 in experiment [1] was 8.70; in experiment [2] it was 7.15; in experiment [3], 9.00; in experiment [5] (setting [6]), 6.12.
On to `COc1cc(-c2ccc3[nH]nc(-c4cncc(O[C@@H]5CCCNC5)n4)c3c2)ccn1` [Example 160, 5-(2-methoxy-4-pyridinyl)-3-(6-((3R)-3-piperidinyloxy)-2-pyrazinyl)-1H-indazole], for which the pIC50 in experiment [1] is 8.30; in experiment [2], 7.62; in experiment [3], 7.92; in experiment [5] (setting [6]), 6.97.
For `Fc1cccc(F)c1-c1ccc2[nH]nc(-c3cncc(N4CCOCC4)n3)c2c1` [Example 169, 5-(2,6-difluorophenyl)-3-(6-(4-morpholinyl)-2-pyrazinyl)-1H-indazole], the pIC50 in experiment [1] is 7.16; in experiment [2], 5.79; in experiment [3], 7.04; in experiment [5] (setting [6]) it was 5.62.
Regarding `Fc1cccc(F)c1-c1ccc2[nH]nc(-c3cncc(O[C@H]4CNC[C@@H](F)C4)n3)c2c1` [Example 196, 5-(2,6-difluorophenyl)-3-(6-(((3R,5S)-5-fluoro-3-piperidinyl)oxy)-2-pyrazinyl)-1H-indazole], the pIC50 in experiment [1] was 8.40; in experiment [2] it was 7.72; in experiment [3] it was 8.22; in experiment [5] (setting [6]), 6.84.
As for `Fc1cccc(F)c1-c1ccc2[nH]cc(-c3cncc(NC4CCCCC4)n3)c2c1` [Example 202, N-cyclohexyl-6-(5-(2,6-difluorophenyl)-1H-indol-3-yl)-2-pyrazinamine], the pIC50 in experiment [1] was 7.68; in experiment [2] it was 6.38; in experiment [3] it was 7.29; in experiment [5] (setting [6]) it was 5.05.
On the same counts, the results for `N[C@@H]1CCCN(c2cncc(-c3c[nH]c4ccc(-c5c(F)cccc5F)cc34)n2)C1` [Example 203, (3R)-1-(6-(5-(2,6-difluorophenyl)-1H-indol-3-yl)-2-pyrazinyl)-3-piperidinamine] are 8.10, 6.74, 7.74 and 5.52.
For the molecule `O=C1CN(c2cncc(-c3c[nH]c4ccc(-c5c(F)cccc5F)cc34)n2)CCN1` [Example 204, 4-(6-(5-(2,6-difluorophenyl)-1H-indol-3-yl)-2-pyrazinyl)-2-piperazinone], the pIC50 in experiment [1] is 7.10; in experiment [2], 6.01; in experiment [3], 7.01; in experiment [5] it was 5.65.
